Assay results as given in ChEMBL document CHEMBL3616440, “Non-basic azolotriazinone MCHR1 antagonists for the treatment of obesity: An empirical brain-exposures-driven candidate selection for in vivo efficacy studies” (Bioorg Med Chem Lett, 2015).

Key:
[1] = test system: Brain; assay: Drug concentration in Sprague-Dawley rat brain assessed as 6-(4-chlorophenyl)-3-(4-(2-hydroxypropoxy)-3-methoxyphenyl)pyrrolo[1,2-f][1,2,4]triazin-4(3H)-one level at 3 mg/kg, po qd after 10 days; assay type: ADME, organism-based; conditions: in vivo, 240 h, read-out: Drug uptake
[2] = test system: Brain; assay: Free drug level in Sprague-Dawley rat brain assessed as 6-(4-chlorophenyl)-3-(4-(2-hydroxypropoxy)-3-methoxyphenyl)pyrrolo[1,2-f][1,2,4]triazin-4(3H)-one level at 30 mg/kg, po qd at 20 hrs; assay type: ADME, organism-based; conditions: in vivo
[3] = test system: Brain; assay: Drug concentration in Sprague-Dawley rat brain assessed as 6-(4-chlorophenyl)-3-(4-(2-hydroxypropoxy)-3-methoxyphenyl)pyrrolo[1,2-f][1,2,4]triazin-4(3H)-one level at 10 mg/kg, po qd after 10 days; assay type: ADME, organism-based; conditions: in vivo, 240 h, read-out: Drug uptake
[4] = test system: Rattus norvegicus; assay: Antiobesity activity in Sprague-Dawley rat assessed as body weight reduction at 30 mg/kg, po qd after 4 days relative to control; assay type: functional; conditions: 96 h
[5] = test system: Liver; assay: Prodrug conversion in oral-dosed Sprague-Dawley rat liver assessed as 3-(4-(6-(4-chlorophenyl)-4-oxopyrrolo[1,2-f][1,2,4]triazin-3(4H)-yl)-2-methoxyphenoxy)-2-hydroxypropanoic acid formation; assay type: ADME, tissue-based; conditions: in vivo
[6] = test system: Rattus norvegicus; assay: Antiobesity activity in Sprague-Dawley rat assessed as body weight reduction at 3 mg/kg, po qd after 4 days relative to control; assay type: functional; conditions: 96 h
[7] = Ratio of free drug level in brain of Sprague-Dawley rat assessed as 6-(4-chlorophenyl)-3-(4-(2-hydroxypropoxy)-3-methoxyphenyl)pyrrolo[1,2-f][1,2,4]triazin-4(3H)-one level at 30 mg/kg, po to Ki for rat MCHR1; assay type: ADME, organism-based; conditions: in vivo
[8] = test system: Liver; assay: Prodrug conversion in oral-dosed Sprague-Dawley rat liver assessed as 6-(4-chlorophenyl)-3-(4-(2,3-dihydroxypropoxy)-3-methoxyphenyl)pyrrolo[1,2-f][1,2,4]triazin-4(3H)-one formation; assay type: ADME, tissue-based; conditions: in vivo
[9] = test system: Rattus norvegicus; assay: Toxicity in Sprague-Dawley rat assessed as biliary lesion at 10 mg/kg, po qd for 10 days; assay type: organism-based; conditions: in vivo, 240 h
[10] = test system: Rattus norvegicus; assay: Antiobesity activity in Sprague-Dawley rat assessed as body weight reduction at 10 mg/kg, po qd after 4 days relative to control; assay type: functional; conditions: 96 h
[11] = test system: Brain; assay: Drug concentration in Sprague-Dawley rat brain assessed as 6-(4-chlorophenyl)-3-(4-(2-hydroxypropoxy)-3-methoxyphenyl)pyrrolo[1,2-f][1,2,4]triazin-4(3H)-one level at 30 mg/kg, po qd after 10 days; assay type: ADME, organism-based; conditions: in vivo, 240 h, read-out: Drug uptake
[12] = test system: Plasma; assay: Fraction unbound in Sprague-Dawley rat plasma assessed as 6-(4-chlorophenyl)-3-(4-(2-hydroxypropoxy)-3-methoxyphenyl)pyrrolo[1,2-f][1,2,4]triazin-4(3H)-one level; assay type: ADME, cell-free
[13] = test system: Nucleic Acid; assay: Ratio of drug level in Sprague-Dawley rat brain to plasma assessed as 6-(4-chlorophenyl)-3-(4-(2-hydroxy-2-methylpropoxy)-3-methoxyphenyl)pyrrolo[1,2-f][1,2,4]triazin-4(3H)-one level at 10 mg/kg, po qd; assay type: ADME, organism-based
[14] = test system: Rattus norvegicus; assay: Cmax in Sprague-Dawley rat assessed as 6-(4-chlorophenyl)-3-(4-(2-hydroxy-2-methylpropoxy)-3-methoxyphenyl)pyrrolo[1,2-f][1,2,4]triazin-4(3H)-one level at 10 mg/kg, po qd at 4 hrs; assay type: ADME, organism-based; design: dose 10 mg/kg, route oral; conditions: in vivo
[15] = test system: Brain; assay: Free drug level in Sprague-Dawley rat brain assessed as 6-(4-chlorophenyl)-3-(4-(2-hydroxy-2-methylpropoxy)-3-methoxyphenyl)pyrrolo[1,2-f][1,2,4]triazin-4(3H)-one level at 30 mg/kg, po qd at 20 hrs; assay type: ADME, organism-based; conditions: in vivo
[16] = test system: Brain; assay: Drug concentration in Sprague-Dawley rat brain assessed as 6-(4-chlorophenyl)-3-(4-(2-hydroxy-2-methylpropoxy)-3-methoxyphenyl)pyrrolo[1,2-f][1,2,4]triazin-4(3H)-one level at 3 mg/kg, po qd at 20 hrs; assay type: ADME, organism-based; conditions: in vivo, read-out: Drug uptake
[17] = test system: Rattus norvegicus; assay: AUC (0 to 8 hrs ) in Sprague-Dawley rat assessed as 6-(4-chlorophenyl)-3-(4-(2-hydroxy-2-methylpropoxy)-3-methoxyphenyl)pyrrolo[1,2-f][1,2,4]triazin-4(3H)-one level at 10 mg/kg, po qd; assay type: ADME, organism-based; design: dose 10 mg/kg, time < 8 hr, route oral; conditions: in vivo
[18] = test system: Brain; assay: Drug concentration in Sprague-Dawley rat brain assessed as 6-(4-chlorophenyl)-3-(4-(2-hydroxy-2-methylpropoxy)-3-methoxyphenyl)pyrrolo[1,2-f][1,2,4]triazin-4(3H)-one level at 30 mg/kg, po qd at 20 hrs; assay type: ADME, organism-based; conditions: in vivo, read-out: Drug uptake
[19] = test system: Liver; assay: Prodrug conversion in Sprague-Dawley rat liver assessed as 3-(4-(6-(4-chlorophenyl)-4-oxopyrrolo[1,2-f][1,2,4]triazin-3(4H)-yl)-2-methoxyphenoxy)-2-hydroxy-2-methylpropanoic acid formation at 10 mg/kg, po qd at 20 hrs post dose; assay type: ADME, organism-based; conditions: in vivo
[20] = Ratio of free drug level in brain of Sprague-Dawley rat assessed as 6-(4-chlorophenyl)-3-(4-(2-hydroxy-2-methylpropoxy)-3-methoxyphenyl)pyrrolo[1,2-f][1,2,4]triazin-4(3H)-one level at 3 mg/kg, po to Ki for rat MCHR1; assay type: ADME, organism-based; conditions: in vivo
[21] = Cmax in Sprague-Dawley rat at 10 mg/kg, po qd after 1.5 hrs; assay type: ADME, organism-based; design: dose 10 mg/kg, route oral; conditions: in vivo
[22] = test system: Plasma; assay: Plasma concentration in Sprague-Dawley rat assessed as 6-(4-chlorophenyl)-3-(4-(2-hydroxy-2-methylpropoxy)-3-methoxyphenyl)pyrrolo[1,2-f][1,2,4]triazin-4(3H)-one level at 10 mg/kg, po qd at 8 hrs; assay type: ADME, organism-based; conditions: in vivo
[23] = test system: Liver; assay: Prodrug conversion in Sprague-Dawley rat liver assessed as 6-(4-chlorophenyl)-3-(4-(2,3-dihydroxy-2-methylpropoxy)-3-methoxyphenyl)pyrrolo[1,2-f][1,2,4]triazin-4(3H)-one formation at 10 mg/kg, po qd at 20 hrs post dose; assay type: ADME, organism-based; conditions: in vivo
[24] = test system: Liver; assay: Prodrug conversion in Sprague-Dawley rat liver assessed as 3-(4-(6-(4-chlorophenyl)-4-oxopyrrolo[1,2-f][1,2,4]triazin-3(4H)-yl)-2-methoxyphenoxy)-2-hydroxypropanoic acid formation at 10 mg/kg, po qd at 20 hrs post dose; assay type: ADME, organism-based; conditions: in vivo
[25] = test system: Brain; assay: Drug concentration in Sprague-Dawley rat brain assessed as 6-(4-chlorophenyl)-3-(4-(2-hydroxy-2-methylpropoxy)-3-methoxyphenyl)pyrrolo[1,2-f][1,2,4]triazin-4(3H)-one level at 10 mg/kg, po qd at 8 hrs; assay type: ADME, organism-based; conditions: in vivo
[26] = test system: Liver; assay: Prodrug conversion in Sprague-Dawley rat liver assessed as 6-(4-chlorophenyl)-3-(4-(2,3-dihydroxypropoxy)-3-methoxyphenyl)pyrrolo[1,2-f][1,2,4]triazin-4(3H)-one formation at 10 mg/kg, po qd at 20 hrs post dose; assay type: ADME, organism-based; conditions: in vivo
[27] = test system: Brain; assay: Drug concentration in Sprague-Dawley rat brain assessed as 6-(4-chlorophenyl)-3-(4-(2-hydroxy-2-methylpropoxy)-3-methoxyphenyl)pyrrolo[1,2-f][1,2,4]triazin-4(3H)-one level at 10 mg/kg, po qd at 20 hrs; assay type: ADME, organism-based; conditions: in vivo, read-out: Drug uptake
[28] = test system: Plasma; assay: Fraction unbound in Sprague-Dawley rat plasma assessed as 6-(4-chlorophenyl)-3-(4-(2-hydroxy-2-methylpropoxy)-3-methoxyphenyl)pyrrolo[1,2-f][1,2,4]triazin-4(3H)-one level; assay type: ADME, cell-free
[29] = AUC (0 to 8 hrs ) in Sprague-Dawley rat at 10 mg/kg, po qd; assay type: ADME, organism-based; design: time < 8 hr, dose 10 mg/kg, route oral; conditions: in vivo
[30] = Ratio of free drug level in brain of Sprague-Dawley rat assessed as 6-(4-chlorophenyl)-3-(4-(2-hydroxy-2-methylpropoxy)-3-methoxyphenyl)pyrrolo[1,2-f][1,2,4]triazin-4(3H)-one level at 30 mg/kg, po to Ki for rat MCHR1; assay type: ADME, organism-based; conditions: in vivo
[31] = Ratio of free drug level in brain of Sprague-Dawley rat assessed as 6-(4-chlorophenyl)-3-(4-(2-hydroxy-2-methylpropoxy)-3-methoxyphenyl)pyrrolo[1,2-f][1,2,4]triazin-4(3H)-one level at 10 mg/kg, po to Ki for rat MCHR1; assay type: ADME, organism-based; conditions: in vivo
[32] = test system: Brain; assay: Free drug level in Sprague-Dawley rat brain assessed as 6-(4-chlorophenyl)-3-(4-(2-hydroxy-2-methylpropoxy)-3-methoxyphenyl)pyrrolo[1,2-f][1,2,4]triazin-4(3H)-one level at 3 mg/kg, po qd at 20 hrs; assay type: ADME, organism-based; conditions: in vivo
[33] = test system: Brain; assay: Free drug level in Sprague-Dawley rat brain assessed as 6-(4-chlorophenyl)-3-(4-(2-hydroxy-2-methylpropoxy)-3-methoxyphenyl)pyrrolo[1,2-f][1,2,4]triazin-4(3H)-one level at 10 mg/kg, po qd at 20 hrs; assay type: ADME, organism-based; conditions: in vivo
[34] = test system: Rattus norvegicus; assay: Toxicity in oral-dosed Sprague-Dawley rat assessed as biliary lesion after 4 days; assay type: organism-based; conditions: in vivo, 96 h

For `COc1cc(-n2cnn3cc(-c4ccc(Cl)cc4)cc3c2=O)ccc1OCC(C)OC(=O)[C@@H](N)C(C)C` (some centres not stated), the concentration [1] was 4.12 µM, the “Drug uptake(free)” value [2] was 8.4 nM and the concentration [3] was 12.9 µM. The inhibition in vivo at 30 mg/kg [4] was 7.6%, the Drug metabolism [5] was 46 µM and the inhibition in vivo at 3 mg/kg [6] was 2.6%. For the same compound, the Ratio [7] was 6, the Drug metabolism [8] was 6 µM and the Activity [9] was “Toxic”. It also gave an inhibition in vivo at 10 mg/kg [10] of 3.9%, a concentration [11] of 20.8 µM and a Fu [12] of 0.4%.
With `COc1cc(-n2cnn3cc(-c4ccc(Cl)cc4)cc3c2=O)ccc1OCC(C)(C)OC(=O)CN` the BPR [13] was 5, the Cmax [14] was 1.57 µM and the “Drug uptake(free)” value [15] was 47 nM. For the same compound, the concentration [16] was 1.57 µM, the AUC [17] was 8.2 µM·h and the concentration [18] was 11.7 µM. The inhibition in vivo at 30 mg/kg [4] was 6.9%, the Drug metabolism [19] was 2.4 µM and the Ratio [20] was 3.5. For the same compound, the Cmax [21] was 0.005 µM, the concentration [22] was 0.903 µM and the Drug metabolism [23] was 10 µM. It also gave a Drug metabolism [24] of 2.4 µM, an inhibition in vivo at 3 mg/kg [6] of 3.6% and a Drug uptake [25] of 4.551 µM. For the same compound, the Drug metabolism [26] was 10 µM, the concentration [27] was 4.04 µM and the Fu [28] was 0.4%. It also gave an AUC at 8 h [29] of 0.015 µM·h, a Ratio [30] of 26 and an inhibition in vivo at 10 mg/kg [10] of 4.7%. For the same compound, the Ratio [31] was 8.9, the “Drug uptake(free)” value [32] was 6.3 nM and the “Drug uptake(free)” value [33] was 16 nM.
In the case of `COc1cc(-n2cnc3cc(-c4ccc(Cl)cc4)sc3c2=O)ccc1OCC(C)O` (configuration not stated), the Activity [34] is reported as “Toxic”.
